In brackets after ≈: the same amount, converted by molar mass. Read-outs that look alike come from different tables or passages of the source.
Key:
rats = assay: Prolonged subacute toxicity in rats; assay type: in vivo, rat; settings: p.o.
Method: (§1) In a study of prolonged subacute toxicity of Miconazole in rats, among other effects, significant hepatomegalias in females with a dosage of under 30 mg/kg p.o. and in males with a dosage of under 60 mg/kg p.o. were observed.

Microsporum canis = assay: MIC by two-fold dilution, Microsporum canis; assay type: cell-based; settings: 4 strains, read-out: Minimum Inhibitory Concentration
Method: (§2) Minimum Inhibitory Concentrations (MICS) of Sertaconazole and Miconazole against 107 yeasts, 47 dermatophytes and 4 fungi were determined by a two-fold dilution method.

Candida albicans [1] = assay: Vaginal infection by Candida albicans in female mice; assay type: in vivo; settings: seven days after infection
Text: Besides the above in vivo experiments vaginal infection by Candida albicans was studied in female mice. Standard methods were used. […] Similar results were found in experiments where repeated dosages of active compound were used after infection. These in vivo results confirmed the surprising speed of action of Sertaconazole in comparison to the prior art compounds.

[2] = Acute toxicity (LD50) in rat, three administration routes; settings: in vivo, males
Method: (§3) Toxicity of Sertaconazole, Microazole and Martin's compounds 1, 2 and 3, as shown below, has been tested by standard methods. Both acute toxicity, subacute toxicity and chronic toxicity were studied
(§4) Oral, intraperitoneal and subcutaneous acute toxicity of sertaconazole and miconazole have been investigated. LD50 in mouse and rat, male and female, were measured.

Trichophyton rubrus = assay: MIC by two-fold dilution, Trichophyton rubrus; assay type: cell-based; settings: 10 strains, read-out: Minimum Inhibitory Concentration
Method: as §2

[3] = system: Trichophyton menta-grophytes; assay: MIC by two-fold dilution, Trichophyton mentagrophytes; assay type: cell-based; settings: 30 strains, read-out: Minimum Inhibitory Concentration
Method: as §2

[4] = Safe dosage based on the toxicity findings; settings: rat, in vivo
Method: as §1
Based on these finds a safe dosage for Miconazole is about 10 mg/kg, while a safe dosage for Sertaconzole is about 150 mg/kg, i.e about 15 times higher.

Chronic toxicity in rats = assay type: in vivo, rat; settings: rat, in vivo; 100 mg/kg or more dosage
Trichophyton rubrum = assay: Randomized double blind clinical trials, Trichophyton rubrum infection; assay type: in vivo, human; settings: 2 % cream (nitrate salts), 28 days treatment
Method: (§5) Human clinical trials were performed with Sertaconazole nitrate and Miconazole nitrate acid addition salts. Randomized double blind trials were carried out with 502 patients suffering from cutaneous mycosis as confirmed by microscopic examination and microbiological culture. 247 patients were treated with 2 % Sertaconazole cream and the remaining 255 patients were treated with 2 % Miconazole cream. All patients received scheduled treatment for 28 days and were followed up for an additional 28 days for possible relapses.

Gram-positive germs = assay: MIC by two-fold dilution, Gram-positive germs; assay type: cell-based; settings: 21 strains; read-out: Minimum Inhibitory Concentration
Dermatophytes, Others = assay: MIC by two-fold dilution, other dermatophytes; assay type: cell-based; settings: 3 strains; read-out: Minimum Inhibitory Concentration
Method: as §2

Torulopsis glabrata = assay: MIC by two-fold dilution, Torulopsis glabrata; assay type: cell-based; settings: Nakaseomyces glabratus; 10 strains; read-out: Minimum Inhibitory Concentration
Method: as §2

cutaneous mycosis = assay: Randomized double blind clinical trials, cutaneous mycosis; settings: 2 % cream (nitrate salts)
Method: as §5

[5] = system: Trichophyton mcntagrophytes; assay: Dermal infection in albino female guinea pigs by Trichophyton mentagrophytes; assay type: in vivo, guinea pig; settings: for % microbiological healing / Negative Cultures to Total Cultures: 2% cream
Text: (§6) A number of compounds with antimycotic and/or fungicidal properties, which are useful in pharmaceutical compositions, are currently known. These include the commercially successful Miconazole having the formula II [drawing 2] Miconazole has a structure chemically similar to the 1H-imidazole derivative compounds of the invention. Miconazole is effective against a number of yeasts, dermatophytes and fungi. This effectiveness can be measured by culturing these microorganisms in vitro and applying a preparation containing the antimycotic compound, Miconazole. The results of this type of in vitro experiment is expressed in terms of the Minimum Inhibitory Concentration (MIC), i.e. the minimum concentration which inhibits the growth of the microorganism. For example, the MIC for Miconazole against a particular Candida albicans strain is found to be 10.7 micrograms/milliliter. The effectiveness of Miconazole as an antimycotic compound is measured in vivo by applying a suspension containing the drug to the skin of a number of animals and measuring the proportion of animals on which growth of the microorganism is inhibited as a function of time. Typically, after 25 days, about 1/4 of the animals were cured, when treated with a cream containing 2 % by weight Miconazole. Of course, any pharmaceutical preparation for treating a disease in a human must satisfy certain toxicity requirements. […] Toxicity tests have been performed on the IH-imidazole derivative compounds of the invention and on Miconazole and other known compounds having antimycotic properties. In toxicity tests the LD50 (the dose at which 50 % mortality occurs) is measured.
Dermal infection in albino female guinea pigs by Trichophyton mcntagrophytes has been studied. Animals were distributed in three groups: a) a control group of infected untreated animals; b) a scrtaconazole group of infected and treated animals; and c) a miconazole group of infected and treated animals. Animals were depleted and a 0.4 ml suspension of the microorganism was applied on the depleted area. Treatment with each of the test drugs was made by application of 1 g of 2% cream on the depleted area on the 4th, 5th and 6th day after infection.

Candida s.p. = assay: MIC by two-fold dilution, Candida s.p.; assay type: cell-based; settings: Candida; 15 strains; read-out: Minimum Inhibitory Concentration
Method: as §2

[6] = Acute toxicity (LD50) in mouse, three administration routes; settings: in vivo
Text: as §6, §3, §4

Candida tropicalis = assay: MIC by two-fold dilution, Candida tropicalis; assay type: cell-based; settings: read-out: Minimum Inhibitory Concentration
Method: as §2

[7] = system: Scopulariopsis brevi-caulis; assay: MIC by two-fold dilution, Scopulariopsis brevicaulis; assay type: cell-based; settings: Scopulariopsis; 4 strains; read-out: Minimum Inhibitory Concentration
Method: as §2

Candida albicans [8] = assay: MIC by two-fold dilution, Candida albicans; assay type: cell-based
Text: as §6, §2

C. albicans 32 = assay: MIC, comparative in vitro testing against Martin compounds; assay type: cell-based; settings: Candida albicans, 32; YNB medium, reading time 48 h; SZ vs M4; read-out: MIC
Method: (§7) Minimum Inhibitory Concentrations (MICS) of Sertaconazole were also measured in comparison to four of the compounds described in the Martin Patent, including a compound, referred to herein as Martin Compound 1, which has the same structure as Sertaconazole, expect that the sulfur in the benzothiophene ring is replaced by an oxygen.
(§8) The results of comparative in vitro testing of Sertaconazole and these four Martin compounds are shown in the following Table II against 16 microorganisms. The reading time is the time interval from the time of inoculation to the time of measurement.

C. tropicalis 25 = assay: as above; assay type: cell-based; settings: Candida tropicalis, 25, 48 h, YNB medium, reading time 48 h; SZ vs M4
Method: as §7, §8

C. albicans ATCC E-10231 = assay: as above; assay type: cell-based; settings: Candida albicans, ATCCE10231; Casitone medium, reading time 48 h; SZ vs M4; read-out: MIC
Method: as §7, §8

C. krusei 24 = assay: as above; assay type: cell-based; settings: Pichia kudriavzevii, 24, 48 h, reading time 48 h, SZ vs M4, read-out: MIC
Method: as §7, §8

C. albicans 31 = assay: as above; assay type: cell-based; settings: Candida albicans, 31; YNB medium, reading time 48 h; SZ vs M4; read-out: MIC
Method: as §7, §8

C. albicans 14 = assay: as above; assay type: cell-based; settings: Candida albicans, 14, 48 h, Casitone medium, reading time 48 h; SZ vs M4
Method: as §7, §8

C. pseudotropicalis 21 = assay: as above; assay type: cell-based; settings: Kluyveromyces marxianus, 21; Sabouraud medium, reading time 48 h; SZ vs M4; read-out: MIC
Method: as §7, §8

C. albicans 15 = assay: as above; assay type: cell-based; settings: Candida albicans, 15, 48 h, Casitone medium, reading time 48 h; SZ vs M4
Method: as §7, §8

C. parapsilosis 19 = assay: as above; assay type: cell-based; settings: 19, 48 h, reading time 48 h, SZ vs M4
Method: as §7, §8

C. stellatoidea 36232 = assay: as above; assay type: cell-based; settings: Candida albicans, 36232, 48 h, reading time 48 h, SZ vs M4
Method: as §7, §8

C. guillermondii = assay: as above; assay type: cell-based; settings: 48 h, reading time 48 h, SZ vs M4, read-out: MIC
Method: as §7, §8

[9] = Acute toxicity in Swiss mice i.p.; settings: mouse, in vivo, ip
Text: Such signs included convulsions and Straub tail(vertical righting of the tail).

16 microorganisms = assay: Geometric mean of all MIC measurements, comparative in vitro testing; assay type: cell-based; settings: 48 h, SZ vs M4, reading time 48 h; read-out: Geometric means of MIC
Method: as §7, §8

Compound: Clc1ccc(COC(Cn2ccnc2)c2ccc(Cl)cc2Cl)c(Cl)c1 (stereo not shown) [Miconazole, reference compound]
- dosage with significant hepatomegalias (rats; females): under 30 mg/kg
- dosage with significant hepatomegalias (rats; males): under 60 mg/kg
- MIC (Microsporum canis): 2 µg/mL (≈ 4.81 µM)
- animals healed (Candida albicans [1]): 12.5%
- LD50 ([2]; ip, intraperitoneal): 1180 mg/kg
- LD50 ([2]; oral): 920 mg/kg
- LD50 ([2]; sc, subcutaneous): > 5000 mg/kg
- MIC (Trichophyton rubrus): 0.3 µg/mL (≈ 0.721 µM)
- MIC [3]: 2.8 µg/mL (≈ 6.73 µM)
- NOAEL [4]: ~10 mg/kg
- mortality (Chronic toxicity in rats): 32%
- effectiveness against Trichophyton rubrum (Trichophyton rubrum): 79%
- MIC (Gram-positive germs): 0.88 µg/mL (≈ 2.11 µM)
- MIC (Dermatophytes, Others): 4 µg/mL (≈ 9.61 µM)
- MIC (Torulopsis glabrata): 1.1 µg/mL (≈ 2.64 µM)
- cases of contact dermatitis (cutaneous mycosis): 5 cases
- % microbiological healing ([5]; 18 days postinfection): 6%
- Negative Cultures to Total Cultures ([5]; 18 days postinfection): 3/48
- % microbiological healing ([5]; 25 days postinfection): 28%
- Negative Cultures to Total Cultures ([5]; 25 days postinfection): 13/48
- % microbiological healing ([5]; 32 days postinfection): 44%
- Negative Cultures to Total Cultures ([5]; 32 days postinfection): 21/48
- proportion of animals cured ([5]; after 25 days, cream containing 2 % by weight): about 1/4
- MIC (Candida s.p.): 0.95 µg/mL (≈ 2.28 µM)
- LD50 ([6]; ip, intraperitoneal): ~600 mg/kg
- LD50 ([6]; ip, intraperitoneal, males): 662 mg/kg
- LD50 ([6]; po): ~2500 mg/kg
- LD50 ([6]; po, males): 2560 mg/kg
- LD50 ([6]; sc, subcutaneous): > 5000 mg/kg
- LD50 ([6]; sc, subcutaneous, males): > 5000 mg/kg
- MIC (Candida tropicalis): 5.6 µg/mL (≈ 13.5 µM)
- MIC [7]: 32 µg/mL (≈ 76.9 µM)
- MIC (Candida albicans [8]; Candida albicans, 52 strains, read-out: Minimum Inhibitory Concentration): 10.7 µg/mL (≈ 25.7 µM)
- MIC (Candida albicans [8]; a particular Candida albicans strain, read-out: MIC): 10.7 µg/mL (≈ 25.7 µM)

Compound: Clc1ccc(C(Cn2ccnc2)OCc2coc3cc(Cl)cc(Cl)c23)c(Cl)c1 (stereo not shown) [Martin compound 4, reference compound]
- MIC (C. albicans 32): 8 µg/mL (≈ 17.5 µM)
- MIC (C. tropicalis 25): 8 µg/mL (≈ 17.5 µM)
- MIC (C. albicans ATCC E-10231): 0.5 µg/mL (≈ 1.1 µM)
- MIC (C. krusei 24; Casitone medium): 0.5 µg/mL (≈ 1.1 µM)
- MIC (C. krusei 24; YNB medium): 0.5 µg/mL (≈ 1.1 µM)
- MIC (C. albicans 31): 8 µg/mL (≈ 17.5 µM)
- MIC (C. albicans 14): 0.5 µg/mL (≈ 1.1 µM)
- MIC (C. pseudotropicalis 21): 0.03 µg/mL (≈ 0.0658 µM)
- MIC (C. albicans 15): 0.03 µg/mL (≈ 0.0658 µM)
- MIC (C. parapsilosis 19; Sabouraud medium): 0.5 µg/mL (≈ 1.1 µM)
- MIC (C. parapsilosis 19; YNB medium): 0.5 µg/mL (≈ 1.1 µM)
- MIC (C. stellatoidea 36232; Casitone medium): 0.06 µg/mL (≈ 0.132 µM)
- MIC (C. stellatoidea 36232; Sabouraud medium): 0.5 µg/mL (≈ 1.1 µM)
- MIC (C. stellatoidea 36232; YNB medium): 0.5 µg/mL (≈ 1.1 µM)
- MIC (C. guillermondii; Casitone medium): 0.5 µg/mL (≈ 1.1 µM)
- MIC (C. guillermondii; YNB medium): 0.5 µg/mL (≈ 1.1 µM)
- LD50 [9]: < 1000 mg/kg
- MIC (16 microorganisms): 0.518 µg/mL (≈ 1.14 µM)

— US5135943A, “1H-imidazole derivative compounds and pharmaceutical compositions containing the same” (priority 1984, dated 1992)
